From patent US20230148599A1, “FUNGICIDAL MIXTURES CONTAINING PYRAZOLE DERIVATIVES” (FMC Corporation, priority 2020, published 2023) come the findings set out here.

What all share (format): in vivo
What all share (details): 50 ppm, 100 = 100% disease control, 0 = no control

For assay [1], the system named is Septoria tritici. In words: Test A: wheat leaf blotch, preventive spray on wheat seedlings. The method, boiled down:
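Preventive test: one day after spraying seedlings to run-off (concentrations in ppm; acetone/water, 250 ppm PEG400), Septoria tritici spores applied. Scored after 48 h humid incubation at 24 °C plus 17 days at 20 °C, as percent disease control versus untreated controls (100 = full control).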

The test system of assay [2] is Puccinia recondita f. sp. tritici. In words: Test B: wheat leaf rust, preventive spray on wheat seedlings. The method, boiled down: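 Preventive test: compound in acetone/water 50/50 with 250 ppm PEG400 was sprayed onto wheat seedlings one day before inoculation with leaf rust spores. After 24 h in saturated air and 7 days in a growth chamber, both at 20 °C, disease control was scored from 0 to 100 against controls.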

Assay [3] has as its system Blumeria graminis f. sp. tritici. In words: Test C: wheat powdery mildew, preventive spray on wheat seedlings. Put shortly:
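Preventive test: inoculation with spore dust came one day after spraying seedlings to run-off with ppm suspensions in acetone/water (50/50) plus 250 ppm PEG400 surfactant. Visual ratings after 8 days' incubation at 20° C give percent disease control relative to controls.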

For assay [4], the system named is Phakopsora pachyrhizi. Briefly: Test D: Asian soybean rust, preventive spray on soybean seedlings. The method, boiled down: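 Compounds in acetone/water (50/50) with 250 ppm PEG400, dosed in ppm, sprayed to run-off on soybean seedlings; inoculated with P. pachyrhizi spores next day. Held 24 h at 22 °C in saturated air, then 8 days at 22 °C; visual rating of disease control, 0–100, relative to untreated controls.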

Assay [5] has as its system Botrytis cinerea. In words: Test E: tomato Botrytis, preventive spray on tomato seedlings. Put shortly: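 Preventive test: seedlings sprayed to run-off with compound in acetone/water (50/50) plus 250 ppm PEG400, inoculated one day later with B. cinerea spores. Held 48 h saturated at 20° C, then 3 days at 24° C; disease control scored visually from 0 to 100 versus controls.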

Assay [6] has as its system Alternaria solani. Briefly: Test F: tomato early blight, preventive spray on tomato seedlings. The method, boiled down: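 Preventive test: one day after the compound spray, seedlings were inoculated with A. solani, incubated saturated at 27 °C for 48 h, then kept at 20 °C for 3 days. Test suspensions contained acetone/water 50/50 with 250 ppm PEG400 surfactant. Visual ratings run from 0 (no control) to 100 (full control).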

As to `Cc1cccc([N+](=O)[O-])c1Nc1c(-c2ccc(F)cc2F)c(C)nn1C` [compound 177], the “Test A disease control rating” value in assay [1] came to 100%. Moreover, the “Test B disease control rating” value in assay [2] was determined as 97%. In addition, in assay [3], the “Test C disease control rating” value worked out at 50%. Besides, the “Test D disease control rating” value in assay [4] was 0%. In assay [5], the “Test E disease control rating” value is listed as 100%. The “Test F disease control rating” value in assay [6] is 9%.

`Cc1cc(F)c(Nc2c(-c3ccc(F)cc3F)c(C)nn2C)c([N+](=O)[O-])c1` [compound 178]: the “Test A disease control rating” value in assay [1] is 100%. For the same compound, the “Test B disease control rating” value in assay [2] is 100%. Further, the “Test C disease control rating” value in assay [3] was determined as 99%. The “Test D disease control rating” value in assay [4] came out at 97%. Besides, the “Test E disease control rating” value in assay [5] worked out at 100%. Besides, the “Test F disease control rating” value in assay [6] stood at 100%.

In the case of `COc1ccc(Nc2c(-c3ccc(C#N)cc3F)c(C)nn2C)c([N+](=O)[O-])c1` [compound 179], the “Test A disease control rating” value in assay [1] was 100%. In addition, in assay [2], the “Test B disease control rating” value is 96%. For the same compound, in assay [3], the “Test C disease control rating” value is 93%. Further, the “Test D disease control rating” value in assay [4] amounted to 0%. Also, the “Test E disease control rating” value in assay [5] is on record as 99%. For the same compound, the “Test F disease control rating” value in assay [6] worked out at 85%.

As for `COc1ccc(Nc2c(-c3ccc(C#N)cc3Br)c(C)nn2C)c([N+](=O)[O-])c1` [compound 180], the “Test A disease control rating” value in assay [1] came to 100%. In assay [2], the “Test B disease control rating” value worked out at 98%. The “Test C disease control rating” value in assay [3] is 79%. Also, the “Test D disease control rating” value in assay [4] stood at 0%. The “Test E disease control rating” value in assay [5] came to 99%. In assay [6], the “Test F disease control rating” value came out at 98%.

Turning to `Cc1cc(Cl)c(Nc2c(-c3ccc(F)cc3Br)c(C)nn2C)c([N+](=O)[O-])c1` [compound 181], the “Test A disease control rating” value in assay [1] amounted to 100%. Also, in assay [2], the “Test B disease control rating” value was 100%. Also, the “Test C disease control rating” value in assay [3] came out at 99%. The “Test D disease control rating” value in assay [4] is recorded as 78%. Further, the “Test E disease control rating” value in assay [5] is given as 99%. Also, the “Test F disease control rating” value in assay [6] is 99%.

Take `COc1ccc(-c2c(C)nn(C)c2Nc2c(F)cc(Br)cc2[N+](=O)[O-])c(Cl)c1` [compound 182]: in assay [1], the “Test A disease control rating” value was 100%. Moreover, the “Test B disease control rating” value in assay [2] was 99%. In assay [3], the “Test C disease control rating” value amounted to 76%. In addition, the “Test D disease control rating” value in assay [4] is given as 0%. In addition, the “Test E disease control rating” value in assay [5] is reported as 100%. In addition, in assay [6], the “Test F disease control rating” value is 99%.

For the compound `COc1ccc(-c2c(C)nn(C)c2Nc2c(C)cccc2[N+](=O)[O-])c(Cl)c1` [compound 183], in assay [1], the “Test A disease control rating” value turned out to be 100%. The “Test B disease control rating” value in assay [2] is 99%. Also, the “Test C disease control rating” value in assay [3] is on record as 78%. Besides, the “Test D disease control rating” value in assay [4] was found to be 0%. Moreover, the “Test E disease control rating” value in assay [5] amounted to 100%. Also, in assay [6], the “Test F disease control rating” value turned out to be 58%.

For `COc1ccc(-c2c(C)nn(C)c2Nc2c(Cl)cccc2[N+](=O)[O-])c(Cl)c1` [compound 184], the “Test A disease control rating” value in assay [1] stood at 100%. In addition, in assay [2], the “Test B disease control rating” value stood at 100%. For the same compound, the “Test C disease control rating” value in assay [3] was determined as 21%. For the same compound, the “Test D disease control rating” value in assay [4] is recorded as 0%. Moreover, the “Test E disease control rating” value in assay [5] amounted to 100%. Moreover, the “Test F disease control rating” value in assay [6] turned out to be 26%.

Consider `CCc1nn(C)c(Nc2c(F)cc(C)cc2[N+](=O)[O-])c1-c1ccc(F)cc1F` [compound 185], for which the “Test A disease control rating” value in assay [1] came to 100%. Besides, the “Test B disease control rating” value in assay [2] stood at 100%. For the same compound, the “Test C disease control rating” value in assay [3] is on record as 99%. In assay [4], the “Test D disease control rating” value is listed as 0%. Moreover, the “Test E disease control rating” value in assay [5] came out at 96%. Moreover, in assay [6], the “Test F disease control rating” value worked out at 99%.

Take `COc1ccc(-c2c(C)nn(C)c2Nc2c(F)cc(OC)cc2[N+](=O)[O-])c(Cl)c1` [compound 186]: in assay [1], the “Test A disease control rating” value is 100%. Besides, in assay [2], the “Test B disease control rating” value is 100%. The “Test C disease control rating” value in assay [3] is given as 99%. In addition, the “Test D disease control rating” value in assay [4] was found to be 94%. The “Test E disease control rating” value in assay [5] came out at 100%. The “Test F disease control rating” value in assay [6] stood at 100%.

As for `COc1ccc(-c2c(C)nn(C)c2Nc2ccc(OC)cc2[N+](=O)[O-])c(Cl)c1` [compound 187], the “Test A disease control rating” value in assay [1] is recorded as 99%. In addition, the “Test B disease control rating” value in assay [2] amounted to 100%. In addition, the “Test C disease control rating” value in assay [3] amounted to 91%. Also, the “Test D disease control rating” value in assay [4] stood at 0%. Besides, in assay [5], the “Test E disease control rating” value amounted to 100%. Moreover, the “Test F disease control rating” value in assay [6] came to 100%.

`COc1ccc(-c2c(C)nn(C)c2Nc2c(F)cc(C)cc2[N+](=O)[O-])c(Cl)c1` [compound 188]: in assay [1], the “Test A disease control rating” value worked out at 100%. Also, the “Test B disease control rating” value in assay [2] was 100%. Further, in assay [3], the “Test C disease control rating” value turned out to be 94%. Also, the “Test D disease control rating” value in assay [4] came out at 84%. Moreover, the “Test E disease control rating” value in assay [5] amounted to 100%. Further, the “Test F disease control rating” value in assay [6] amounted to 100%.

Consider `Cc1nn(C)c(Nc2ccccc2[N+](=O)[O-])c1-c1ccc(Cl)cc1Cl` [compound 189], for which, in assay [1], the “Test A disease control rating” value came out at 99%. Moreover, the “Test B disease control rating” value in assay [2] is listed as 68%. In addition, the “Test C disease control rating” value in assay [3] stood at 57%. Further, the “Test D disease control rating” value in assay [4] is 0%. In assay [5], the “Test E disease control rating” value was found to be 99%. The “Test F disease control rating” value in assay [6] amounted to 0%.

Turning to `Cc1nn(C)c(Nc2ccccc2[N+](=O)[O-])c1-c1ccc(F)cc1F` [compound 190], the “Test A disease control rating” value in assay [1] amounted to 100%. For the same compound, the “Test B disease control rating” value in assay [2] is listed as 32%. Besides, in assay [3], the “Test C disease control rating” value is reported as 91%. In addition, the “Test D disease control rating” value in assay [4] is given as 0%. The “Test E disease control rating” value in assay [5] is reported as 100%. Moreover, in assay [6], the “Test F disease control rating” value is given as 9%.

`Cc1nn(C)c(Nc2c(F)cc(Br)cc2[N+](=O)[O-])c1-c1ccc(F)cc1Br` [compound 191]: the “Test A disease control rating” value in assay [1] is 100%. For the same compound, the “Test B disease control rating” value in assay [2] is given as 100%. Besides, in assay [3], the “Test C disease control rating” value was determined as 99%. Also, in assay [4], the “Test D disease control rating” value stood at 13%. Also, the “Test E disease control rating” value in assay [5] was found to be 100%. Moreover, the “Test F disease control rating” value in assay [6] amounted to 100%.

In the case of `Cc1nn(C)c(Nc2c(F)cccc2[N+](=O)[O-])c1-c1ccc([N+](=O)[O-])cc1Cl` [compound 192], the “Test A disease control rating” value in assay [1] was 100%. Moreover, in assay [2], the “Test B disease control rating” value is recorded as 99%. Also, in assay [3], the “Test C disease control rating” value came to 76%. In addition, in assay [4], the “Test D disease control rating” value is 19%. Further, the “Test E disease control rating” value in assay [5] came out at 99%. Also, the “Test F disease control rating” value in assay [6] is reported as 93%.

For `Cc1cc(F)c(Nc2c(-c3c(F)cc(F)cc3Cl)c(C)nn2C)c([N+](=O)[O-])c1` [compound 193], in assay [1], the “Test A disease control rating” value stood at 100%. The “Test B disease control rating” value in assay [2] is 100%. For the same compound, the “Test C disease control rating” value in assay [3] amounted to 100%. Further, in assay [4], the “Test D disease control rating” value is given as 99%. In addition, the “Test E disease control rating” value in assay [5] is 99%. The “Test F disease control rating” value in assay [6] is given as 100%.

With `Cc1cc(F)c(Nc2c(-c3c(F)cc(F)cc3F)c(C)nn2C)c([N+](=O)[O-])c1` [compound 194], the “Test A disease control rating” value in assay [1] came to 100%. For the same compound, the “Test B disease control rating” value in assay [2] is on record as 100%. Further, the “Test C disease control rating” value in assay [3] turned out to be 100%. Also, the “Test D disease control rating” value in assay [4] came out at 99%. The “Test E disease control rating” value in assay [5] is listed as 99%. In addition, the “Test F disease control rating” value in assay [6] was found to be 100%.
